# Structures can show the parent of a compound that is named as a salt. Where two headings read alike, the source gives them in different places.
# Experiments:
# primary rat microglia [1] = experiment: Cell toxicity (dead cells, size <150 μm2) in LPS assay; conditions: for IC50: read-out: Cell Toxicity IC50 (uM) [LPS assay], LPS assay; for LPS % cell toxicity: primary microglia HTS, LPS stimulation, decreased size (<150 μm^2) as marker of toxicity
# in vitro [2] = conditions: rat
# in vitro [3] = conditions: rat, Cell Toxicity IC50 (uM) [cFib assay]
# [4] = system: fibrin- and LPS-induced microglia activation; experiment: cells; type: cell-based, rat; conditions: for inhibition at 10 µM: Rattus norvegicus
# [5] = system: LPS-induced microglia activation; experiment: Image-based assay of LPS-induced microglia activation (HTS and dose response); type: cell-based, rat; conditions: Rattus norvegicus, Microglia; for inhibition at 10 µM: primary microglia HTS, LPS stimulation, increased cell size (>800 μm^2) as marker of activation, read-out: LPS % inhibition
# [6] = system: fibrin-induced microglia activation; experiment: Image-based assay of fibrin-induced microglia activation (HTS and dose response); type: cell-based, rat; conditions: for IC50 / inhibition at 10 µM: Rattus norvegicus, Microglia; for inhibition at 10 µM: primary microglia HTS, fibrin stimulation, increased cell size (>800 μm^2) as marker of activation, read-out: Fibrin % inhibition
# primary rat microglia [7] = conditions: rat
# primary rat microglia [8] = experiment: Cell toxicity (dead cells, size <150 μm2) in coated fibrin (cFib) assay; conditions: primary microglia HTS, fibrin stimulation; decreased size (<150 μm^2) as marker of toxicity;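 on Fibrin % cell toxicity: share of dead cells sized under 150 µm2 at 10 µM in fibrin-stimulated microglia HTS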
# [9] = HTS of 1907 compounds, quadrant by fibrin and LPS inhibition
# [10] = Microglia, Table 3, read-out: Cherry-picked Hit (Suppl. Table 7)
# [11] = Microglia, HTS hit classification, read-out: Hit
# [12] = quadrant by fibrin and LPS inhibition in HTS of 1907 compounds
# [13] = 48 h, Table 1, dose response 0.001-20 μM, triplicates, primary rat microglia, 48 h, read-out: LPS IC50
# [14] = LPS-induced microglia activation, dose response, read-out: LPS IC50 (uM) (Suppl. Table 7)
# [15] = Table 3, read-out: LPS IC50 (uM) (Suppl. Table 7)
# [16] = dose response, LPS-induced microglia activation, read-out: LPS IC50
# [17] = Table 3, read-out: Fibrin IC50 (uM) (Suppl. Table 7)
# [18] = 48 h, Table 1, dose response 0.001-20 μM, triplicates, primary rat microglia, 48 h, read-out: Fibrin IC50
# [19] = dose response, fibrin-induced microglia activation, read-out: Fibrin IC50
# [20] = fibrin-induced microglia activation, dose response, read-out: Fibrin IC50 (uM) (Suppl. Table 7)
# [21] = hit classification in microglia HTS, read-out: Cherry-picked Hit (Suppl. Table 7)
SMILES,IC50 (in vitro [2]) [µM],IC50 (in vitro [3]; Table 3) [µM],IC50 (in vitro [3]; cFib assay) [µM],"Quadrant (FIG. 5b) [4, 9]","inhibition at 10 µM [4, 10] [%]","inhibition at 10 µM [4, 11] [%]","Quadrant (FIG. 5b) ([4]; Table 1, screen at 10 μM)","Quadrant (FIG. 5b) ([4]; Table 3, screen at 10 μM)","Quadrant (FIG. 5b) [4, 12]","IC50 [5, 13] [µM]",inhibition at 10 µM ([5]; 48 h) [%],"IC50 [5, 14] [µM]","IC50 [5, 16] [µM]","IC50 [6, 17] [µM]",inhibition at 10 µM [6] [%],LPS % cell toxicity (primary rat microglia [1]) [%],Fibrin % cell toxicity (primary rat microglia [8]) [%],"IC50 [6, 18] [µM]","IC50 [6, 19] [µM]","IC50 [6, 20] [µM]",also measured
"CC(=O)O[C@@]12CO[C@@H]1C[C@H](O)[C@@]1(C)C(=O)[C@H](O)C3=C(C)[C@@H](OC(=O)[C@H](O)[C@@H](NC(=O)OC(C)(C)C)c4ccccc4)C[C@@](O)([C@@H](OC(=O)c4ccccc4)[C@H]21)C3(C)C [Docetaxel, reference compound]",> 20,> 20,> 20,Q3,> 50,> 50,Q3,Q3,Q3,> 20,32,> 20,> 20,0.002,64,,,,,,"IC50 (primary rat microglia [1]): > 20 µM; IC50 (primary rat microglia [1]; Table 6): > 20 µM; IC50 (in vitro [3]; cFib assay, Table 6): > 20 µM; Quadrant (FIG. 5b) ([4]; microglia HTS, Table 6): Q3; IC50 [5, 15]: > 20 µM; IC50 ([5]; Table 6, read-out: LPS IC50 (uM) (Suppl. Table 7)): > 20 µM; IC50 ([6]; Table 6, read-out: Fibrin IC50 (uM) (Suppl. Table 7)): 0.002 µM; Fibrin Selectivity (LOG10) ([6]; fibrin vs LPS, LOG10, Table 6): 3.99; Fibrin Selectivity ([6]; fibrin vs LPS, Table 6): 9814; LPS % cell toxicity (primary rat microglia [7]): 1%"
"O=C1C=C2C=C[C@@H]3C[C@@]2(O1)[C@H]1CCCCN31 [Securinine, reference compound]",12,> 20,> 20,Q2,> 50,> 50,Q2,Q2,Q2,6,106,6,6,2,104,1,2,2,2,2,"IC50 [5, 15]: 6 µM; Fibrin Selectivity [6]: 3; Fibrin Selectivity (LOG10) [6]: 0.40"
"Nc1ccc(S(=O)(=O)Nc2cnc3ccccc3n2)cc1 [Sulfaquinoxaline sodium, reference compound]",> 20,,> 20,Q2,,> 50,Q2,,Q2,> 20,104,> 20,> 20,,106,3,3,> 20,> 20,> 20,"inhibition at 10 µM [4, 21]: > 50%"
"[H]/N=C(/NCCCCC)N/N=C/c1c[nH]c2ccc(OC)cc12 [Tegaserod maleate, reference compound]",> 20,> 20,> 20,Q2,> 50,> 50,Q2,Q2,Q2,19,86,19,19,1,100,2,2,1,1,1,"IC50 (primary rat microglia [1]): > 20 µM; IC50 [5, 15]: 19 µM; Fibrin Selectivity [6]: 20; Fibrin Selectivity (LOG10) [6]: 1.29"
"COc1ccc(-n2nc(CCC(=O)N(C)O)cc2-c2ccc(Cl)cc2)cc1 [Tepoxalin, reference compound]",> 20,> 20,> 20,Q2,> 50,> 50,Q2,Q2,Q2,18,66,18,18,3,76,2,1,3,3,3,"IC50 (primary rat microglia [1]): > 20 µM; IC50 [5, 15]: 18 µM; Fibrin Selectivity [6]: 6; Fibrin Selectivity (LOG10) [6]: 0.75"
"c1ccc2[nH]c(-c3cscn3)nc2c1 [Thiabendazole, reference compound]",> 20,,> 20,Q2,,> 50,Q2,,Q2,> 20,62,> 20,> 20,,58,1,1,> 20,> 20,> 20,"inhibition at 10 µM [4, 21]: > 50%"
"Cc1ccc(S(=O)(=O)NC(=O)NN2CCCCCC2)cc1 [Tolazamide, reference compound]",> 20,> 20,> 20,Q3,> 50,> 50,Q3,Q3,Q3,> 20,42,> 20,> 20,12,88,0,1,12,12,12,"IC50 (primary rat microglia [1]): > 20 µM; IC50 [5, 15]: > 20 µM; Fibrin Selectivity [6]: 2; Fibrin Selectivity (LOG10) [6]: 0.23"
"Cc1cccc(N(C)C(=S)Oc2ccc3ccccc3c2)c1 [Tolnaftate, reference compound]",> 20,> 20,> 20,Q2,> 50,> 50,Q2,Q2,Q2,,60,,,2,76,1,1,2,2,2,IC50 (primary rat microglia [1]): > 20 µM
"Cc1cc(-n2c(=O)[nH]c(=O)n(C)c2=O)ccc1Oc1ccc(SC(F)(F)F)cc1 [Toltrazuril, reference compound]",> 20,,> 20,Q2,,> 50,Q2,,Q2,> 20,90,> 20,> 20,,104,2,3,> 20,> 20,> 20,"inhibition at 10 µM [4, 21]: > 50%"
"Cc1cccc(C)c1N=C1NCCCS1 [Xylazine hydrochloride, reference compound]",> 20,> 20,> 20,Q2,> 50,> 50,Q2,Q2,Q2,8,72,8,8,2,102,2,1,2,2,2,"IC50 (primary rat microglia [1]): > 20 µM; IC50 [5, 15]: 8 µM; Fibrin Selectivity [6]: 5; Fibrin Selectivity (LOG10) [6]: 0.72"
